In ChEMBL document CHEMBL1201862, “PubChem BioAssay data set” (2004):
Activity calls are given as the source filed them.

Columns and labels:
[1] = molecular target: T1, Neuropeptide Y receptor type 1 (Homo sapiens, UniProt P25929); experiment: Fluorescence-based counterscreen for agonists of NPY-Y2: cell-based high-throughput dose response assay for agonists of NPY-Y1.; type: functional
T1 sequence (P25929 whole entry): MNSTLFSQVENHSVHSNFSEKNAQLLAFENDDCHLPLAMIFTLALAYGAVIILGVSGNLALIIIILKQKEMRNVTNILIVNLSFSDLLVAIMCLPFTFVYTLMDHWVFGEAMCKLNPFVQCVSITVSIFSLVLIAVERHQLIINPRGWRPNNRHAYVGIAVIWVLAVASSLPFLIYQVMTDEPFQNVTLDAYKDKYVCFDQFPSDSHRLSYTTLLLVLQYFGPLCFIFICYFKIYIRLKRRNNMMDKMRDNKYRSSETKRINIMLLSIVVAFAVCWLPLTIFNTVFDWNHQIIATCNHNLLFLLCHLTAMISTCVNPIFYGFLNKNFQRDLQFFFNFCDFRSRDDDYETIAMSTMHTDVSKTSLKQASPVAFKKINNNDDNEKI

[2] = molecular target: T2, Heat shock factor protein 1 (Mus musculus, UniProt P38532); experiment: HSF1 potentiators in luciferase reporter cells, confirmation, cell-based, NIH3T3, luminescence, dose retest (AID 435004); type: functional;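 also: stress induced by proteasome inhibitor MG132 added 30 min after compound; luciferase reporter driven by HSF1 response element in NIH3T3 cells; actives raise luminescence as potentiators of the MG132 stress response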
T2 sequence (P38532 whole entry): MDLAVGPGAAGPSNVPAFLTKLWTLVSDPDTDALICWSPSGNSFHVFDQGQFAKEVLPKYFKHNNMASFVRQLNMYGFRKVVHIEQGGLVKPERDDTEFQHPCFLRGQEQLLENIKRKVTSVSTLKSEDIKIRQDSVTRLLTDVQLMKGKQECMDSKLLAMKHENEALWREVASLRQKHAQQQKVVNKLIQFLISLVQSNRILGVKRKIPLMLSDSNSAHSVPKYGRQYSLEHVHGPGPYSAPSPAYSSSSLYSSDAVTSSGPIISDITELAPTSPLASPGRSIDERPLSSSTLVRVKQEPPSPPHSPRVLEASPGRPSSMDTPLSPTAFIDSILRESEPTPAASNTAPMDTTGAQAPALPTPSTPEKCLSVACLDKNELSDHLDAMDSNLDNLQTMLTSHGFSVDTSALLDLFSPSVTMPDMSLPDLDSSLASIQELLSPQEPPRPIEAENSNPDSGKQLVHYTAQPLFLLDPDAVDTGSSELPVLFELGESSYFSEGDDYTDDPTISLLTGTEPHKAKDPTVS

[3] = tested on: HEK293; experiment: Fluorescence-based counterscreen for potentiators or agonists of NPY-Y2: cell-based high-throughput dose response assay to identify inhibitors of cyclic nucleotide gated ion channel (CNGC) activity. In this assay, the parental HEK293 cell line transfected with a cyclic-nucleotide gated ion channel (CNGC)-based cAMP sensor is used to measure inhibition of isoproterenol-induced CNGC activity by test compound.; type: functional; settings: Homo sapiens;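 also: stimulus is 1 µM isoproterenol at EC100 plus PDE inhibitor Ro 20-1724 at 25 µM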
[4] = NIH-3T3 fibroblast cytotoxicity, dose response, cytotoxicity control, cell-based, fluorescence, Alamar Blue, secondary assay (AID 2327); type: functional;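 also: NIH-3T3 mouse fibroblasts cultured with fluconazole at 8 µg/mL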
[5] = C. albicans growth with fluconazole, confirmation, fluorescence, retest (AID 2467); type: functional, cell-based
[6] = molecular target: T3, Neuropeptide Y receptor type 2 (Homo sapiens, UniProt P49146); experiment: Fluorescence-based cell-based high-throughput dose response assay for agonists of NPY-Y2. [Related pubchem assays: 1703 (Screening assay (CNGC inhibitors).), 1359 (Screening assay (NPY-Y2 potentiators or agonists).), 1304 (Screening assay (NPY-Y1 potentiators or agonists).), 1710 (Screening assay (NPY-Y2 agonists).), 1791 (Summary AID.)]; type: functional
T3 sequence (P49146 whole entry): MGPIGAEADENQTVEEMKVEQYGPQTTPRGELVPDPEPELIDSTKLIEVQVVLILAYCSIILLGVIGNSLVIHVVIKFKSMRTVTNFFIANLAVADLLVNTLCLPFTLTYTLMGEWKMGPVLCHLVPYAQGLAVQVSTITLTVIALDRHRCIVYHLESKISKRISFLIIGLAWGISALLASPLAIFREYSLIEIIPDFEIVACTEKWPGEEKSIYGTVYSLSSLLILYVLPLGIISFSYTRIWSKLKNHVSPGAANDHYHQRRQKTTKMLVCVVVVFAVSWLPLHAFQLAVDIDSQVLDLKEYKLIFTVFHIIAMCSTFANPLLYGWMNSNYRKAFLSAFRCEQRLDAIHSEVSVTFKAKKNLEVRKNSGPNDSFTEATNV

[7] = molecular target: T4, Calpain-2 catalytic subunit (Sus scrofa, UniProt P43367); experiment: pig calpain II inhibitor potency, dose response, biochemical, fluorogenic peptide substrate (AID 1420); type: functional
T4 sequence (P43367 whole entry): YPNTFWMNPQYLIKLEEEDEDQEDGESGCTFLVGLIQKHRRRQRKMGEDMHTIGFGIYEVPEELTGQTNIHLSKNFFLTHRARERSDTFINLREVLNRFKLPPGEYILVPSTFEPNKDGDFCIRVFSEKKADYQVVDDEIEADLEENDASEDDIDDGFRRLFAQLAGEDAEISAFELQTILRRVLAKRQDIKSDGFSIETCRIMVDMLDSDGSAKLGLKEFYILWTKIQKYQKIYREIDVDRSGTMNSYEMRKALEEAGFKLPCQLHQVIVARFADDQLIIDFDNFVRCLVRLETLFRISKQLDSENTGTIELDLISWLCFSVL

[8] = molecular target: Photoreceptor-specific nuclear receptor (Homo sapiens, UniProt Q9Y5X4); type: functional;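 also: potency for compounds that break the NR2E3 corepressor complex and count as activators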
[9] = molecular target: Peroxisome proliferator-activated receptor gamma/Nuclear receptor corepressor 2 (Homo sapiens, UniProt P37231+Q9Y618); type: functional
[10] = molecular target: Ras and Rab interactor 1/Tyrosine-protein kinase ABL1 (Homo sapiens, UniProt P00519+Q13671); type: functional;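 also: biochemical TR-FRET dose-response test measuring inhibition of binding between Rin1 and Abl proteins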
[11] = molecular target: T5, Streptokinase A (Streptococcus pyogenes serotype M1, UniProt P10520); experiment: S. pyogenes streptokinase expression inhibitors, potency, dose response, plasminogen activation absorbance, OD405 (AID 1914); type: functional, Streptococcus pyogenes M1 GAS;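 also: secreted streptokinase activity via plasminogen activation per viability signal from cell pellet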
T5 sequence (P10520 whole entry): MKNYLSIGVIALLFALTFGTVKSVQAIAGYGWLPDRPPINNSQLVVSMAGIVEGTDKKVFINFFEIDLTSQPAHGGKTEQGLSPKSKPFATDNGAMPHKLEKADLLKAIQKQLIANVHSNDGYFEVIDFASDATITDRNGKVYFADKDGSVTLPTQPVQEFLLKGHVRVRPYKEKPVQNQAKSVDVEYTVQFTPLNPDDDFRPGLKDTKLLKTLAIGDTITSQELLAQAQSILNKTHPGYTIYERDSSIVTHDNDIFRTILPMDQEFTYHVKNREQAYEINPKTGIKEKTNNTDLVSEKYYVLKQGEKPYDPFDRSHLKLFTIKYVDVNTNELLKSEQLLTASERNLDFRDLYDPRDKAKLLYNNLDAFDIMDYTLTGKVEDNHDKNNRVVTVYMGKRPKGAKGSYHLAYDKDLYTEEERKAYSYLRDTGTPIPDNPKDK

[12] = tested on: Streptococcus; experiment: Group A Streptococcus viability loss, dose response, counter-screen for streptokinase expression inhibitor project, luminescence, BacTiterGlo (AID 1915); type: functional, organism-based;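 also: potency for reduction of bacterial viability or growth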
[13] = molecular target: T6, Ubiquitin-conjugating enzyme E2 N (Homo sapiens, UniProt P61088); type: functional;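 also: Dose-response confirmation in a TR-FRET assay detecting UBC13-driven polyubiquitin chain formation, inhibition measured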
T6 sequence (P61088 whole entry): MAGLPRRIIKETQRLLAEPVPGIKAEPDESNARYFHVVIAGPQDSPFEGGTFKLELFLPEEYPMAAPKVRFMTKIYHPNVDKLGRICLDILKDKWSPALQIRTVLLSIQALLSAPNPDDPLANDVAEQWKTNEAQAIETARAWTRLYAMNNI

[14] = molecular target: T7, Alkaline phosphatase, tissue-nonspecific isozyme (Homo sapiens, UniProt P05186)
T7 sequence (P05186 whole entry): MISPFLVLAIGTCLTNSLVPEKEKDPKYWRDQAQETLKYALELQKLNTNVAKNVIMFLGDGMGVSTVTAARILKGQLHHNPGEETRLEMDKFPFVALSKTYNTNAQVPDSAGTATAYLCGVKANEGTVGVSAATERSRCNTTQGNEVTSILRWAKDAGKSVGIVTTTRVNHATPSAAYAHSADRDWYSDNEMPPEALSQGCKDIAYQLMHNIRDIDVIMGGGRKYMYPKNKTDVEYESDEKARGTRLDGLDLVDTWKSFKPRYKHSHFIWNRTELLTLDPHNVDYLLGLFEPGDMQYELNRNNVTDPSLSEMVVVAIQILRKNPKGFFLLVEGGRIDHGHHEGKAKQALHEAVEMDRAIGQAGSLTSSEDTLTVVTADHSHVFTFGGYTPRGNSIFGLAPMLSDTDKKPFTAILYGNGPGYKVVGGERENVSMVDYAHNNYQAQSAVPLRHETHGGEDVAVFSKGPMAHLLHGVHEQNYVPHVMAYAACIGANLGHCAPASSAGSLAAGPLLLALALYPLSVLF

[15] = tested on: Streptococcus sp. 'group A'; experiment: growth inhibition of control SK(-) GAS strain, dose response, counter-screen for streptokinase expression inhibitor project, luminescence, kanamycin, BacTiterGlo, confirmation (AID 1900); type: functional, organism-based
[16] = molecular target: Acyl-homoserine lactone acylase PvdQ (Pseudomonas aeruginosa (strain LESB58), UniProt Q9I194); experiment: P. aeruginosa PvdQ acylase inhibitors, dose response, biochemical, fluorescence, plate reader and imaging, cherry-picks (AID 493231)
[17] = molecular target: Peroxisome proliferator-activated receptor gamma/Nuclear receptor coactivator 3 (Homo sapiens, UniProt P37231); experiment: (§1) TR-FRET dose response biochemical High Throughput Screening assay for agonists of the steroid receptor coactivator 3 (SRC-3) recruitment by the peroxisome proliferator-activated receptor gamma (PPAR gamma): non-selective agonists. [Related pubchem assays: 1301 (Confirmation screen.), 1048 (Primary screen.)]; type: functional
[18] = molecular target: Major prion protein (Homo sapiens, UniProt P04156); type: functional, cell-based
[19] = cells
[20] = molecular target: Peroxisome proliferator-activated receptor gamma/Nuclear receptor coactivator 1 (Homo sapiens, UniProt P37231); experiment: as §1, with “1 (SRC-1)” for “3 (SRC-3)”, “assays (depositor defined):AID1300, AID1808, AID504735, AID631]” for “assays: 1301 (Confirmation screen.), 1048 (Primary screen.)]”; type: protein assay
[21] = molecular target: Genome polyprotein (Hepatitis C virus, UniProt Q2Q167); experiment: HCV core protein dimerization inhibitors, dose response, biochemical, TR-FRET (AID 2159); parameters: species or system Hepacivirus hominis;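 also: blocks dimerization of HCV core protein measured by TR-FRET between tagged core106 pairs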
[22] = molecular target: Peroxisome proliferator-activated receptor gamma/Nuclear receptor coactivator 2 (Homo sapiens, UniProt P37231); experiment: TR-FRET dose response biochemical High Throughput Screening assay for agonists of the steroid receptor coactivator 2 (SRC-2) recruitment by the peroxisome proliferator-activated receptor gamma (PPAR gamma): non-selective agonists. [Related pubchem assays: 1297, 1032 ]; type: functional
[23] = molecular target: Aspartyl aminopeptidase (Plasmodium falciparum 3D7, UniProt Q8I2J3)
[24] = molecular target: Procathepsin L (Homo sapiens, UniProt P07711)
[25] = M. tuberculosis H37Rv growth inhibitors, H37Rv strain (AID 1626); type: functional
[26] = molecular target: Cytochrome P450 2D6 (Homo sapiens, UniProt P10635);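 also: CYP2D6 member of a cytochrome P450 panel assay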
Sequence of Cytochrome P450 2D6 (P10635 whole entry): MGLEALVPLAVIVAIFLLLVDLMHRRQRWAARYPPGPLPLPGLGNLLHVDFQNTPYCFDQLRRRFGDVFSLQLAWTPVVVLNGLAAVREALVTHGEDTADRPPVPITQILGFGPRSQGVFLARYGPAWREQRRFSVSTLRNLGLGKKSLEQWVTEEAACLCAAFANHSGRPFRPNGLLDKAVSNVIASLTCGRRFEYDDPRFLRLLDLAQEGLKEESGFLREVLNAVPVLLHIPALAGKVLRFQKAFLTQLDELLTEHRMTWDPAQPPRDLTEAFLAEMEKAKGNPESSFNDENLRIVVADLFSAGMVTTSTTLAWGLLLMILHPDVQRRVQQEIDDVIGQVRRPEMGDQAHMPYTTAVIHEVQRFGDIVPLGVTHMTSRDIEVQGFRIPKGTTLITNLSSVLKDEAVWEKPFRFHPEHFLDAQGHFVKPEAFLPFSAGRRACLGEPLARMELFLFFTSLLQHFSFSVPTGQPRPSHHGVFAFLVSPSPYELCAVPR

Sequence of Aspartyl aminopeptidase (Q8I2J3 whole entry): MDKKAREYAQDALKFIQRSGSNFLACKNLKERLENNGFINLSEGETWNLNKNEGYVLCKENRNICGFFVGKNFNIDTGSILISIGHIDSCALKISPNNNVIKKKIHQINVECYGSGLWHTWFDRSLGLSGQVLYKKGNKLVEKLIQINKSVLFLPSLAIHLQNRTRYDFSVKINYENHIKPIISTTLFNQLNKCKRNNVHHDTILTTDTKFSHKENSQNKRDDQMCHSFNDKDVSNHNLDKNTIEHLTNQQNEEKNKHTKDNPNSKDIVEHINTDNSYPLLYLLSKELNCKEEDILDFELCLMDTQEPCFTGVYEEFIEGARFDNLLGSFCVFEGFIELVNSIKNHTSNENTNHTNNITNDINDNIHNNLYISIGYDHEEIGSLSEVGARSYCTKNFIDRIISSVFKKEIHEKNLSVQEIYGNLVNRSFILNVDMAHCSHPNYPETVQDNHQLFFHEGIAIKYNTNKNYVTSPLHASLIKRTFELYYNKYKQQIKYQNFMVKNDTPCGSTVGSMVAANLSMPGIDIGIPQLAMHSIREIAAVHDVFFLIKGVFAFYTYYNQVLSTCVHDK
Sequence of Photoreceptor-specific nuclear receptor (Q9Y5X4 whole entry): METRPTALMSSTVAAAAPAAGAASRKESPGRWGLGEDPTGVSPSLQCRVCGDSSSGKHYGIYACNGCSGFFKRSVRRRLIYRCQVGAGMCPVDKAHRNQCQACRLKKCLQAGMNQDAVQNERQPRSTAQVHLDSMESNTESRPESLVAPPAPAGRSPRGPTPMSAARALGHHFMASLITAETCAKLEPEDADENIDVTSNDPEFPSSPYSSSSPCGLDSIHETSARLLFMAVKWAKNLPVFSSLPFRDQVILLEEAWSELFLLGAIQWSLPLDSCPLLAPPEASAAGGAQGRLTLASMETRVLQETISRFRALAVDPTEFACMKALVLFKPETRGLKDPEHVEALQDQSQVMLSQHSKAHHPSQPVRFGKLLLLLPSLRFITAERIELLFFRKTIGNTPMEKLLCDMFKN
Sequence of Procathepsin L (P07711 whole entry): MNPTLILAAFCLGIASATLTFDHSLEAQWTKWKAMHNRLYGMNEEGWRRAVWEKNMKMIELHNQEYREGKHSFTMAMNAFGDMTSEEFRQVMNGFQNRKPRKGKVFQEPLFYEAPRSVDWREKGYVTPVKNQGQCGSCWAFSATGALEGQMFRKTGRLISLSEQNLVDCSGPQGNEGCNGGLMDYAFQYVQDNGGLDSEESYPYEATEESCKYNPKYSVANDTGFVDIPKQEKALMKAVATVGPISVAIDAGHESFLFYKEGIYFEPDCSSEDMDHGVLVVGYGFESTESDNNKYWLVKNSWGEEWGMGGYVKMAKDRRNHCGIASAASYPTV
Sequence of Peroxisome proliferator-activated receptor gamma/Nuclear receptor corepressor 2 (P37231 whole entry): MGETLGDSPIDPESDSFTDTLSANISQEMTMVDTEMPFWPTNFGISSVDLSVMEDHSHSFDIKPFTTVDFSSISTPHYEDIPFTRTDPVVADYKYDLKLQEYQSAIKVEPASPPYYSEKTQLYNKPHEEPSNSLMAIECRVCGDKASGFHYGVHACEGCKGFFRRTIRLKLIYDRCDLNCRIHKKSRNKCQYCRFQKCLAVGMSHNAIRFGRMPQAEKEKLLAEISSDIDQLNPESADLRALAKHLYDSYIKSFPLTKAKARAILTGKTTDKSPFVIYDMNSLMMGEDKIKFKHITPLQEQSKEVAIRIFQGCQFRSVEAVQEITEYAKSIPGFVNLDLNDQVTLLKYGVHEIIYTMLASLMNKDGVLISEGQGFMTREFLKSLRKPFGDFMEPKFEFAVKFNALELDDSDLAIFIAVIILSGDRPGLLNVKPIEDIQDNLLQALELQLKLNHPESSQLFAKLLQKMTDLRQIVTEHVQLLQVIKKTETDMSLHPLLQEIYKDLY
Sequence of Peroxisome proliferator-activated receptor gamma/Nuclear receptor corepressor 2 (Q9Y618 whole entry): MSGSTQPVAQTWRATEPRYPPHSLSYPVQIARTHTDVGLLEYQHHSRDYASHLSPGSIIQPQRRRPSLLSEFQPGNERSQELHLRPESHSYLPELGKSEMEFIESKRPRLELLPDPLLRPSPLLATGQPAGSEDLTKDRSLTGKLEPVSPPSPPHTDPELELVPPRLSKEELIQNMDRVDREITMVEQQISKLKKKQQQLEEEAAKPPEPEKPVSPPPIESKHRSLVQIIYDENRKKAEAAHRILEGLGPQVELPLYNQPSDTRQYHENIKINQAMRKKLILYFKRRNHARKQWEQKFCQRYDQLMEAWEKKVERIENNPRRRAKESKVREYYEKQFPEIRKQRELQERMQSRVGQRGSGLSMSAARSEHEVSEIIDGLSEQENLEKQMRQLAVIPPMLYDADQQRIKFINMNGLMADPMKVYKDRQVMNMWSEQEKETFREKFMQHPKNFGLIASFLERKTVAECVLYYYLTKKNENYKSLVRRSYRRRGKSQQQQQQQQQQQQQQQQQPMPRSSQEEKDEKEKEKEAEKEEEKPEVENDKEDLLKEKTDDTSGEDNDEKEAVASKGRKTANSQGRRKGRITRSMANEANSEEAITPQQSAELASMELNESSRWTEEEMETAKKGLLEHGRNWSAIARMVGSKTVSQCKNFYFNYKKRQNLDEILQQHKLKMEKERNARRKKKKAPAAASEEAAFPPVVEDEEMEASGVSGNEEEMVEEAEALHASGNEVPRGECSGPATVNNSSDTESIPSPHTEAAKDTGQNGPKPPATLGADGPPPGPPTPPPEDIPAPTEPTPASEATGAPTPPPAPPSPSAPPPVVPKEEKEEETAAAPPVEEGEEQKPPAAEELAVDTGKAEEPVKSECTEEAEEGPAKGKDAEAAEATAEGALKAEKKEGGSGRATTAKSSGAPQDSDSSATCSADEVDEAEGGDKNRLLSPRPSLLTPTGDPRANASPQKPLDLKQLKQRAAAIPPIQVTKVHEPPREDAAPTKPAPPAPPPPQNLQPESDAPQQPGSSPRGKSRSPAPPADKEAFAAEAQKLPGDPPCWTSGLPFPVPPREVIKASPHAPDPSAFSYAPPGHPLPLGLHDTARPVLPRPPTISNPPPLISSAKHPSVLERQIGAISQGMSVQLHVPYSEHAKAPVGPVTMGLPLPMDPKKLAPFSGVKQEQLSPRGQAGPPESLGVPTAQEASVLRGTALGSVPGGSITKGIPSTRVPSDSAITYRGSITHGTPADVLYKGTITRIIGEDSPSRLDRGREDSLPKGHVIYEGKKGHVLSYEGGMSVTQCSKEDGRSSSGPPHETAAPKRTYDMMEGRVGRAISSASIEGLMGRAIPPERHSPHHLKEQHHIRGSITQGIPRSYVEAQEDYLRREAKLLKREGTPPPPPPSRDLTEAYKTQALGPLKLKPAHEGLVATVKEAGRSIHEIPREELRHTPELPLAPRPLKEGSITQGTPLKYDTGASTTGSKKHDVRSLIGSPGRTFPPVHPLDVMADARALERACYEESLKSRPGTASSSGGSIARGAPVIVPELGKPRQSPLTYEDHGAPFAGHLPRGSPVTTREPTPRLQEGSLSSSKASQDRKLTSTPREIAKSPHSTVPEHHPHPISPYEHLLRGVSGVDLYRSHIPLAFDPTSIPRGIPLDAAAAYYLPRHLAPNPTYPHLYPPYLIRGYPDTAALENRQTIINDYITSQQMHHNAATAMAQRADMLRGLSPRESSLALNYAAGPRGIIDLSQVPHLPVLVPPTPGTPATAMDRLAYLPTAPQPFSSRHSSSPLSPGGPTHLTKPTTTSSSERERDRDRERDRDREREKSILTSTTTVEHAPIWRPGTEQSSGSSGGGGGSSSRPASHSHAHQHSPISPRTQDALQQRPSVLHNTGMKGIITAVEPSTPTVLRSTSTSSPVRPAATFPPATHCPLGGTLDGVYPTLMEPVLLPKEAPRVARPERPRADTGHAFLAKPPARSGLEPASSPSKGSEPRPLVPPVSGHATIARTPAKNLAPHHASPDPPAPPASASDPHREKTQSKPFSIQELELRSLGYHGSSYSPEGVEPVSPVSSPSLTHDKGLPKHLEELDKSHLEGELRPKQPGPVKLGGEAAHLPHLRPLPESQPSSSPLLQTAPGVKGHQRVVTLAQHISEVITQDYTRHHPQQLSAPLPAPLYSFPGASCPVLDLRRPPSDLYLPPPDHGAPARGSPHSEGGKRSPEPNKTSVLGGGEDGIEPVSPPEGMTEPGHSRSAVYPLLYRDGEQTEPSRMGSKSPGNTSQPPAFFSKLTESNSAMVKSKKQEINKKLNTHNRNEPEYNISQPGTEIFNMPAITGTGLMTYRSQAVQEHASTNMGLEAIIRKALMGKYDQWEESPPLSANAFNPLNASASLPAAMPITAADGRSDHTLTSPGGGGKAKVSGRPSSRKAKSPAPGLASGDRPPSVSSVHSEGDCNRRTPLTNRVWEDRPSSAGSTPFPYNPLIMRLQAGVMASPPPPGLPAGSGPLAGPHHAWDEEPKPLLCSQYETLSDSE
Sequence of Genome polyprotein (Q2Q167 whole entry): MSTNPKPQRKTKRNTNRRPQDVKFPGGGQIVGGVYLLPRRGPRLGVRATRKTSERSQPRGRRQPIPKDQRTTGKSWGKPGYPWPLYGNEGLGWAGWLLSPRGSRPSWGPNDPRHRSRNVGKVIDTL

SMILES: O=C(COc1ccc(Cl)cc1)Nc1ncc([N+](=O)[O-])s1
- EC50 [1]: 33.8 µM (not active)
- EC50 [2]: 0.382 µM (active)
- EC50 [3]: > 35.4 µM (not active)
- EC50 [4]: 36 µM (active)
- EC50 [5]: 0.166 µM (active)
- EC50 [6]: > 35.4 µM (not active)
- IC50 [7]: 24.9 µM (not active)

SMILES: Cc1cccc(C)c1NC(=O)CCCCCC1NC(=O)NC1C (configuration not stated)
- IC50 [8]: 3.85 µM (active)
- IC50 [9]: > 39.8 µM (not active)
- IC50 [10]: 0.106 µM (active)

SMILES: COc1ccc(Cl)cc1NC(=O)CN1CCC(n2nnc3cc(C)ccc32)CC1
- EC50 [11]: 26.4 µM (active)
- EC50 [12]: 93.4 µM (active)
- IC50 [13]: > 20 µM (inactive)
- EC50 [14]: 70.6 µM (not active)
- EC50 [15]: 12.2 µM (active)

SMILES: Cc1cccc(C(C#N)c2ccc(Cl)nn2)c1 (configuration not stated)
- EC50 [2]: > 260 µM (inactive)
- AC50 [16]: 2.01 µM (active)

SMILES: Cc1cc(Br)c2nc3c(c(C(=O)O)c2c1)CCCCC3
- IC50 [8]: 1.38 µM (active)
- IC50 [9]: 0.604 µM (active)
- EC50 [17]: > 79.4 µM (not active)
- IC50 [18]: 0.141 µM (active)
- IC50 [19]: > 138 µM (inactive)
- EC50 [20]: > 79.4 µM (inactive)
- IC50 [21]: > 49.8 µM (not active)
- EC50 [22]: 12.8 µM (not active)

SMILES: Nc1nncn1C(=O)CCCOc1ccc(Cl)cc1Cl
- IC50 [23]: 2.6 µM (active)
- IC50 [24]: > 59.6 µM (not active)

SMILES: CCN(CC)S(=O)(=O)c1ccc(C(=O)Nn2cnnc2)cc1
- IC50 [23]: 1.07 µM (active)
- IC50 [24]: > 59.6 µM (not active)

SMILES: CC(=O)OCCCN1c2ccccc2Nc2nnc(-c3ccccc3)cc21
- IC50 [25]: > 100 µM (active)
- EC50 [14]: 71.8 µM (not active)
- AC50 [26]: 15.8 µM (inconclusive)
